Source: patent US8232278B2 (Gilead Sciences, Inc., priority 2005, dated 2012)
pEC50: −log10 of the molar value. Read-outs that look alike come from different tables or passages of the source.

Legend:
[1] = CC50 assay in Huh-7 HCV replicon cells (CellTiter-Glo); format: cell-based, human; conditions: human, 50% cytostatic concentration
Method: (§1) The anti-HCV activity of the pyrido[3,2-d]pyrimidine derivatives of this invention was tested in a human hepatoma Huh-7 cell line harbouring a HCV replicon. The assay comprised the following steps:
(§2) Step 1: Compound Preparation and Serial Dilution
(§3) • 1. for water soluble pyrido[3,2-d]pyrimidine derivatives, a volume of 500 μL of solution in cell media (DMEM, 10% FBS, P/S, L-Glutamine) was prepared with a concentration being twice the concentration of the starting final serial dilution concentration. […] The rest of the plate, columns 2-12, was filled with 100 μL of cell media. The plate was then placed on a Precision 2000 Workstation to start the serial dilution. Compounds were diluted three times each step from column 1 to column 10. Column 11 was used as a blank control (no compound added). • 2. for pyrido[3,2-d]pyrimidine derivatives requiring DMSO to dissolve, serial dilution is performed in 50% DMSO in a 384-well plate. A solution containing a compound at 100-fold concentration of the starting final serial dilution concentration was prepared in 50% DMSO and added to the pre-specified wells in column 1 of a polypropylene 384-well plate. The plate was then placed on a Precision 2000 Workstation to start the serial dilution. After the serial dilution, a volume of 2 μL of the solution was transferred from the 384-well plate to a 96-well cell culture plate containing 100 μL of cell media on a Biomek FX Workstation. The DMSO concentration in the final assay condition was 0.5% after cells are added to the plate and the total volume in each well is brought to 200 μL. Step 2: to each well of the serial dilution plate prepared above, 100 μL of cell media containing 6000 suspended Huh-7 HCV replicon cells was added with a Multidrop workstation. The plates were incubated for 3 days at 37° C. with 5% CO2. Step 3: Detection: • a) for the EC50 assay, the media in a 96-well cell culture plate was aspirated with a Biotek EL405 plate-washer. A volume of 200 μL of a solution containing a 1:1 mixture of cell-lysis buffer (Promega, Luciferase Cell Culture Lysis 5× Reagent, cat. #E1531) and luciferase substrate solution (Promega, Luciferase Assay, cat. #E4550) was added to each well of the plate with Multidrop.
(§4) Results in table 7 are expressed by the following data: • the 50% effective concentration (EC50), i.e. the concentration that protects 50% of the cell monolayer from virus-induced cythopathic effect, and • the 50% cytostatic concentration (CC50), i.e. the concentration that results in 50% inhibition of cell growth. Table 7 further indicates the nature of substituents being present in positions 2, 4 and 6 of the pyrido[3,2-d]pyrimidine derivatives of the invention.

HCV replicon = experiment: Anti-HCV assay / replicon assay (EC50, luciferase read-out); format: cell-based, hepatitis C virus (HCV); conditions: for CC50/EC50: CC50/EC50 ratio (selectivity index)
Method: as §1, §2, §3, §4

Huh-7 HCV replicon cells = experiment: CC50 assay in Huh-7 HCV replicon cells (CellTiter-Glo); format: cell-based, human; conditions: 3 days, 50% cytostatic concentration
Method: as §1, §2, §3, §4

[2] = Hepatitis C virus, 72 h, human hepatoma Huh-7 cell line harbouring a HCV replicon, 3 days, luciferase luminescence, read-out: EC50
[3] = human hepatoma Huh-7 cell line harbouring a HCV replicon, 3 days, luciferase luminescence, read-out: EC50

SMILES	CC50 at 3 days [1]	CC50/EC50 (HCV replicon)	pEC50 (HCV replicon; [2])	CC50 (Huh-7 HCV replicon cells)	pEC50 (HCV replicon; [3])	pEC50 (HCV replicon; Hepatitis C virus, Huh-7, 72 h)
COc1ccc(-c2ccc3nc(N)nc(Nc4cccc(Br)c4)c3n2)cc1OC [Example 34, 2-amino-4-(3-bromo-anilino)-6-(3,4-dimethoxyphenyl)pyrido[3,2-d]-pyrimidine]	7700 nM	151	7.29			
CC(=O)N1CCN(c2nc(N)nc3ccc(-c4ccc5c(c4)OCO5)nc23)CC1 [Example 184, 2-amino-4-[N-acetyl-piperazin-1-yl]-6-(3,4-methylenedioxyphenyl)-pyrido[3,2-d]pyrimidine]	21800 nM	128	6.77			
Nc1nc(N2CCN(C(=O)COc3ccc(Cl)cc3)CC2)c2nc(-c3ccc4c(c3)OCO4)ccc2n1 [Example 187, 2-amino-4-[N-(4-chlorophenoxy-acetyl)-piperazin-1-yl]-6-(3,4-methylenedioxyphenyl)-pyrido[3,2-d]pyrimidine]	1200 nM	64	7.72			
Cc1cccc(NC(=O)N2CCN(c3nc(N)nc4ccc(-c5ccc(F)cc5)nc34)CC2)c1 [Example 390, 2-amino-4-[N-(3-methylphenyl-carbamoyl)-piperazin-1-yl]-6-(4-fluorophenyl)-pyrido[3,2-d]pyrimidine]		575		3500 nM	8.22	
CSc1nc(N)nc2ccc(-c3ccc(F)cc3)nc12 [Example 392, 2-amino-4-thiomethyl-6-(4-fluorophenyl)-pyrido(3,2-d)pyrimidine]		512		25100 nM	7.31	
CCSc1nc(N)nc2ccc(-c3ccc(F)cc3)nc12 [Example 393, 2-amino-4-thioethyl-6-(4-fluorophenyl)pyrido(3,2-d)pyrimidine]		154		36000 nM	6.63	
CC(C)Sc1nc(N)nc2ccc(-c3ccc(F)cc3)nc12 [Example 394, 2-amino-4-thioisopropyl-6-(4-fluorophenyl)pyrido(3,2-d)pyrimidine]		268		50100 nM	6.73	
Nc1nc(N2CCS(=O)(=O)CC2)c2nc(-c3ccc(F)cc3)ccc2n1 [Example 406, 2-amino-4-(thiomorpholino-1,1-dioxide)-6-(4-fluorophenyl)pyrido[3,2-d]pyrimidine]		1931		25100 nM	7.89	
CS(=O)(=O)CCNc1nc(N)nc2ccc(-c3ccc(F)cc3)nc12 [Example 415, 2-amino-4-[(2-aminoethyl)methylsulfone]-6-(4-fluorophenyl)pyrido[3,2-d]pyrimidine]		118		11700 nM	7.00	
CCOc1nc(N)nc2ccc(-c3ccc(F)c(Cl)c3)nc12 [Example 462, 6-(3-chloro-4-fluoro-phenyl)-4-ethoxy-pyrido[3,2-d]pyrimidin-2-ylamine]		117		50100 nM		6.37
CCOc1nc(N)nc2ccc(-c3ccc(Cl)cc3)nc12 [Example 463, 6-(4-chloro-phenyl)-4-ethoxy-pyrido[3,2-d]pyrimidin-2-ylamine]		98		50100 nM		6.29
CCOc1nc(N)nc2ccc(-c3ccc(N)cc3)nc12 [Example 465, 6-(4-amino-phenyl)-4-ethoxy-pyrido[3,2-d]pyrimidin-2-ylamine]		145		50100 nM		6.46
CCOc1nc(N)nc2ccc(-c3cccs3)nc12 [Example 467, 4-Ethoxy-6-thiophen-2-yl-pyrido[3,2-d]pyrimidin-2-ylamine]		113	6.35	50100 nM		
CCOc1nc(NC(C)=O)nc2ccc(-c3ccc(F)cc3)nc12 [NHCOMe/OEt/(4-F)Ph]		170		25100 nM	6.83	
